“And” between values parts separate entries of the source, which are not always exact repeats. Equal values may be shown once. “Also recorded” adds a separate entry of the source. Read-outs that look alike come from different tables or passages of the source.
How the values were obtained:
HepG2 cells [1] = assay: in vitro; settings: human, 24 h
Protocol: (§1) Briefly, HepG2 cells are seeded at 4×10^4/well on a 96-well plate in 100 μL growth medium and incubated for 24 h at 37° C. The medium is removed and the cells are washed with PBS. Treatments of fruit extracts or antioxidant compounds in 100 μL treatment medium (Williams' Medium E supplemented with 2 mM L-glutamine and 10 mM Hepes) are applied to the cells and the plates are incubated at 37° C. for 24 h. The treatment medium is removed and the cells are washed with PBS. A volume of 50 μL/well methylene blue staining solution (98% HBSS, 0.67% glutaraldehyde, 0.6% methylene blue) is applied to each well and the plate is incubated at 37° C. for 1 h.
(§2) Excess dye is removed by immersing the plate in fresh deionized water until the water appears clear. The excess water should be tapped out of the wells and the plate allowed to air-dry briefly before addition of 100 μL elution solution (49% PBS, 50% ethanol, 1% acetic acid) to each well. The microplate is then placed on a bench-top shaker for 20 minutes to allow uniform elution. The absorbance is read at 570 nm with blank subtraction using, for example a MRX II DYNEX spectrophotometer (DYNEX Inc., Chantilly, Va.). Concentrations of pure compounds or fruit extracts that decrease the absorbance by more than 10% when compared to the control are considered to be cytotoxic.
(§3) Cytotoxicity was measured using the method of Oliver et al. (31) with modifications by our laboratory (32). […] The medium was removed and the cells were washed with PBS. Treatments of fruit extracts or antioxidant compounds in 100 μL treatment medium (Williams' Medium E supplemented with 2 mM L-glutamine and 10 mM Hepes) were applied to the cells and the plates were incubated at 37° C. for 24 h. The treatment medium was removed and the cells were washed with PBS. A volume of 50 μL/well methylene blue staining solution (98% HBSS, 0.67% glutaraldehyde, 0.6% methylene blue) was applied to each well and the plate was incubated at 37° C. for 1 h. The dye was removed and the plate was immersed in fresh deionized water three times, or until the water was clear. The water was tapped out of the wells and the plate was allowed to air-dry briefly before 100 μL elution solution (49% PBS, 50% ethanol, 1% acetic acid) was added to each well. The microplate was placed on a bench-top shaker for 20 minutes to allow uniform elution. The absorbance was read at 570 nm with blank subtraction using the MRX II DYNEX spectrophotometer (DYNEX Inc., Chantilly, Va.). Concentrations of pure compounds or fruit extracts that decreased the absorbance by more than 10% when compared to the control were considered to be cytotoxic.
(§4) The median cytotoxic concentration (CC50) was calculated for each fruit.
(§5) Briefly, HepG2 cells were seeded at 4×10^4/well on a 96-well plate in 100 μL growth medium and incubated for 24 h at 37° C. The medium was removed, and the cells were washed with PBS. Flavonoids in 100 μL growth medium were applied to the cells, and the plates were incubated at 37° C. for 24 h. The medium was removed, and the cells were washed with PBS before a volume of 50 μL/well methylene blue staining solution (98% HBSS, 0.67% glutaraldehyde, 0.6% methylene blue) was applied to each well, and the plate was incubated at 37° C. for 1 h. The dye was removed, and the plate was immersed in fresh deionized water until the water was clear. The water was tapped out of the wells, and the plate was allowed to air-dry briefly before 100 μL of elution solution (49% PBS, 50% ethanol, 1% acetic acid) was added to each well. The microplate was placed on a benchtop shaker for 20 min to allow uniform
(§6) elution. The absorbance was read at 570 nm with blank subtraction using the MRX II Dynex spectrophotometer (Dynex Inc., Chantilly, Va.). The median cytotoxic concentration (CC50) was calculated for each flavonoid.

HepG2 cells [2] = assay: Cellular antioxidant activity (CAA) assay: inhibition of peroxyl radical-induced DCFH oxidation; type: cell-based, human; settings: for CAA value / percent of the antioxidant activity of quercetin in the CAA assay: Example 1; for CAA value: pure compounds, EC50 converted to quercetin equivalents; for percent of the antioxidant activity of quercetin in the CAA assay: summary statement
Protocol: Cells (e.g., human hepatocellular carcinoma cells; HepG2) are seeded at a density of e.g., 6×10^4/well on a 96-well microplate in 100 μL growth medium/well. It is preferred that only the inside wells of e.g., a 96-well microplate are used for the assay, since the outer wells have increased variation compared to that of the inner wells. Twenty-four hours after seeding the growth medium is removed and the wells are washed with PBS. Triplicate wells are treated for 1 h with 100 μL of a test compound (e.g., pure phytochemical compounds or fruit extracts) plus 25 μM DCFH-DA dissolved in treatment medium.
600 μM ABAP is then applied to the cells in 100 μL HBSS and the 96-well microplate is placed into a plate reader e.g., Fluoroskan Ascent FL plate-reader (ThermoLabsystems, Franklin, Mass.) at 37° C. Emission at 538 nm is measured with excitation at 485 nm, for example every 5 min for 1 h. Each plate should include triplicate control and blank wells: control wells contain cells treated with DCFH-DA and oxidant; blank wells contain cells treated with dye and HBSS without oxidant.
A test compound is assayed in multiple wells of e.g., a 96-well cell culture plate. Some wells are washed with 100 μL of phosphate-buffered saline (PBS) prior to the addition of ABAP, while other wells were not washed prior to the addition of ABAP. It was noted that the measured antioxidant activity of some fruit extracts (e.g., blueberries) was different when a PBS wash was used compared to when there was no PBS wash (see Table 2; FIGS. 3 and 4). This is likely due to non-specific binding of certain antioxidant compounds to the outer membrane, or a reduced uptake of the compound, thus the ratio of antioxidant activity values obtained with a PBS wash compared to a non-PBS wash indicates the bioavailability of the test compound. In order to accurately measure the intracellular antioxidant activity of a test compound, a PBS wash prior to the addition of a peroxyl initiator (e.g, ABAP) is necessary. The values obtained for cells assayed using a PBS wash should be compared to values obtained for the same cells assayed without a PBS wash. One of skill in the art can plan and perform experiments on a test compound in the presence and absence of a PBS wash, in order to accurately assess the intracellular antioxidant capacity of the test compound.
After blank subtraction from the fluorescence readings, the area under the curve of fluorescence versus time is integrated to calculate the cellular antioxidant activity (CAA) value at each concentration of pure phytochemical compound or fruit extract as follows:
where ∫SA is the integrated area under the sample fluorescence versus time curve and ∫CA is the integrated area from the control curve. The median effective dose (EC50) was determined for the pure phytochemical compounds and fruit extracts from the median effect plot of log (fa/fu) vs. log (dose), where fa is the fraction affected and fu is the fraction unaffected by the treatment. To quantify intra-experimental variation, the EC50 values are stated as mean±SD for triplicate sets of data obtained from the same experiment. Inter-experimental variation is obtained for some representative pure phytochemical compounds and fruit extracts by averaging the fluorescence values from triplicate wells in each trial to obtain one EC50 value per experiment and calculating the mean±SD for at least four trials. In each experiment, a standard is used, for example quecetin, thus permitting the cellular antioxidant activities for a test compounds to be expressed as μmol quercetin equivalents (QE)/100 μmol compound. Fruit extracts are expressed as μmol QE/100 g fruit. In order to compare the antioxidant quality of different fruits, cellular antioxidant activity (CAA) is also calculated as μmol QE/100 μmol total phenolics.
Human hepatocellular carcinoma HepG2 cells were seeded at a density of 6×10^4/well on a 96-well microplate in 100 μL growth medium/well. […]

in vitro = settings: human
Protocol: as §1, §2, §3, §4, §5, §6

[3] = Oxygen radical absorbance capacity (ORAC) assay; settings: Example 3; flavonoids; mean ± SD, n ≧ 3
Protocol: The peroxyl radical scavenging efficacy of selected fruits was measured using the ORAC assay (Prior, R. L., et al (2003) J. Agric. Food Chem. 51:3273-3279). Briefly, 20 μL of blank, Trolox standard, or fruit extracts in 75 mM potassium phosphate buffer, pH 7.4 (working buffer), was added to triplicate wells in a black, clear-bottom, 96-well microplate. The triplicate samples were distributed throughout the microplate and were not placed side-by-side, to avoid any effects on readings due to location. In addition, no outside wells were used, as use of those wells results in greater variation. A volume of 200 μL of 0.96 μM fluorescein in working buffer was added to each well and incubated at 37° C. for 20 min, with intermittent shaking, before the addition of 20 μL of freshly prepared 119 mM ABAP in working buffer using a 12-channel pipetter. The microplate was immediately inserted into a Fluoroskan Ascent FL plate reader (ThermoLabsystems) at 37° C. The decay of fluorescence at 538 nm was measured with excitation at 485 nm every 4.5 min for 2.5 h. The areas under the fluorescence versus time curve for the samples minus the area under the curve for the blank were calculated and compared to a standard curve of the areas under the curve for 6.25, 12.5, 25, and 50 μM Trolox standards minus the area under the curve for blank. ORAC values were expressed as mean micromoles of Trolox equivalents (TE) per 100 g of fruit±SD for triplicate data from one experiment.
ORAC measurements were performed as described herein in Example 2.

[4] = Homo sapiens, HepG2, Example 1, Table 1, PBS wash, pure phytochemical compounds, mean ± SD, n=3, read-out: EC50 for inhibition of peroxyl radical-induced DCFH oxidation
[5] = Homo sapiens, HepG2, Example 1, Table 1, no PBS wash, pure phytochemical compounds, mean ± SD, n=3, read-out: EC50 for inhibition of peroxyl radical-induced DCFH oxidation
[6] = CAA assay, either protocol or protocol not specified
[7] = Example 3, Table 7, PBS wash, flavonoids, mean ± SD, n=3
[8] = Example 3, Table 7, no PBS wash, flavonoids, mean ± SD, n=3

| Compound | Cytotoxicity (cytotoxic concentration) (HepG2 cells [1]) | CAA value (HepG2 cells [2]; no PBS wash) | percent of the antioxidant activity of quercetin in the CAA assay (HepG2 cells [2]) | EC50 (HepG2 cells [2]; [4]) | EC50 (HepG2 cells [2]; [5]) | ORAC [3] | cellular antioxidant activity, result in words (HepG2 cells [2]; [6]) | EC50 (HepG2 cells [2]; [7]) | EC50 (HepG2 cells [2]; [8]) | other results |
| --- | --- | --- | --- | --- | --- | --- | --- | --- | --- | --- |
| O=C1O[C@H]([C@@H](O)CO)C(O)=C1O [Ascorbic acid, ascorbic acid] | >500 µM | 8.84±1.18 μmol QE/100 μmol | less than ten percent | > 500 µM | 67.5 ± 9.4 µM |  |  |  |  | cellular antioxidant activity, result in words (HepG2 cells [2]; PBS wash protocol): low |
| O=C(O)/C=C/c1ccc(O)c(O)c1 [Caffeic acid, caffeic acid] | >500 µM | 5.59±0.70 μmol QE/100 μmol | less than ten percent | 525 ± 38 µM | 95.3 ± 15.3 µM |  |  |  |  |  |
| COc1cc(/C=C/C(=O)O)ccc1O [Ferulic acid, ferulic acid] | >500 µM |  |  | > 500 µM | > 250 µM |  |  |  |  | cellular antioxidant activity, result in words (HepG2 cells [2]; no PBS wash protocol): low activity within the doses tested |
| O=C(O)c1cc(O)c(O)c(O)c1 [Gallic acid] | >500 µM | 9.08±0.95 μmol QE/100 μmol | less than ten percent | 335 ± 26 µM | 65.4 ± 7.3 µM |  |  |  |  | EC50 (HepG2 cells [2]; Homo sapiens, HepG2, Table 2, no PBS wash, mean ± SD over the trials, read-out: Interexperimental EC50): 64.3 ± 10.7 µM; EC50 (HepG2 cells [2]; Homo sapiens, HepG2, Table 2, no PBS wash, one line per trial (trials 1-5), n=3, read-out: Intraexperimental EC50): 65.4 ± 7.3 µM; EC50 (HepG2 cells [2]; Homo sapiens, HepG2, Table 3, PBS wash, mean ± SD over the trials, read-out: Interexperimental EC50): 318 ± 36 µM; EC50 (HepG2 cells [2]; Homo sapiens, HepG2, Table 3, PBS wash, one line per trial (trials 1-5), n=3, read-out: Intraexperimental EC50): 289 ± 12 µM |
| O=c1cc(-c2ccc(O)cc2)oc2cc(O)cc(O)c12 [apigenin] |  |  |  |  |  | 10.7 ± 1.5 bc μmol of TE/μmol | no cellular antioxidant activity; also recorded: no CAA | no activity | no activity | CC50 at 24 h (in vitro): > 80 µM |
| O=c1cc(-c2ccccc2)oc2cc(O)cc(O)c12 [chrysin] |  |  |  |  |  |  | no activity | no activity | no activity | CC50 at 24 h (in vitro): > 200 µM |
| O=c1c(-c2ccc(O)cc2)coc2cc(O)ccc12 [daidzein] |  |  |  |  |  | 8.52 ± 2.11 cde μmol of TE/μmol | no cellular antioxidant activity | no activity | no activity | CC50 at 24 h (in vitro; HepG2 cells): > 100 µM |
| C[C@@H]1O[C@@H](OC[C@H]2O[C@@H](Oc3c(-c4ccc(O)c(O)c4)oc4cc(O)cc(O)c4c3=O)[C@H](O)[C@@H](O)[C@@H]2O)[C@H](O)[C@H](O)[C@H]1O [rutin] |  |  |  |  |  |  | no activity | no activity | no activity | CC50 at 24 h (in vitro; HepG2 cells): > 200 µM |
| (+)-catechin |  | 2.03±0.24 μmol QE/100 μmol | less than ten percent |  |  | 12.4±4.0 μmol of TE/μmol and 12.4 ± 4.0 ab μmol of TE/μmol | low or no cellular antioxidant activity; also recorded: low CAA |  |  | EC50 (HepG2 cells [2]; Example 1, Table 1, PBS wash, pure phytochemical compounds, mean ± SD, n=3, read-out: EC50 for inhibition of peroxyl radical-induced DCFH oxidation): > 500 µM; EC50 (HepG2 cells [2]; Example 1, Table 1, no PBS wash, pure phytochemical compounds, mean ± SD, n=3, read-out: EC50 for inhibition of peroxyl radical-induced DCFH oxidation): 292 ± 32 µM; EC50 (HepG2 cells [2]; Example 3, Table 7, PBS wash, flavonoids, mean ± SD, n=3, read-out: EC50): > 800 µM; CAA (HepG2 cells [2]; Example 3, Table 7, no PBS wash): 2.5 ± 0.1 μmol of QE/100 μmol; EC50 (HepG2 cells [2]; Example 3, text, no PBS wash, read-out: EC50): 360 ± 17 µM; cellular antioxidant activity, result in words (HepG2 cells [2]; PBS wash protocol): very low, unquantifiable, activity; cellular antioxidant activity, result in words (HepG2 cells [2]; PBS wash protocol, listed as catechin): low and low activity at the concentrations tested |
